Entries after “also recorded” stand apart in the source; their conditions may differ.

These results are taken from patent US12599575B2, “Antimicrobial adjuvant containing biphenyl derivative compound as active ingredient, and uses thereof” (KOREA RESEARCH INSTITUTE OF BIOSCIENCE AND BIOTECHNOLOGY, priority 2021, dated 2026).

The assay deals with Acinetobacter baumannii colistin resistance 357 (R357 strains). It counts as cell-based.

As for `Cc1cc([N+](=O)[O-])cc(-c2ccc(Cl)cc2)c1O` [PA108], under “PA108 5 μM alone”, the “cell growth inhibitory effect (respiration rate), PA108 alone” value is on record as “no self cell growth inhibitory effect”. Besides, where the note is “compound 5 μM + PMB 16 μg/mL, 37° C., 24 hours”, the “bacterial growth inhibitory effect (relative respiration rate) in combination with PMB” value was “an activity to improve bacterial susceptibility to a polymyxin-based antibiotic; also recorded: cellular respiration was effectively inhibited”.

In the case of polymyxin B [PMB, reference compound], the “cell growth inhibitory effect (respiration rate), PMB alone” value (PMB 16 μg/mL alone) is given as “no cell growth inhibitory effect”.
